# Assay results reported in patent US7700584B2 (Hangzhou Minsheng Pharmaceuticals Co., Ltd., priority 2004, dated 2010).
# Tests used:
# [1] = test system: U-937 human histocytic lymphoma; experiment: In vitro inhibition rate to tumor cells (MTT), U-937; type: cell-based; conditions: 50 μg/ml
# Procedure: (§1) (1) Single cell suspension was seeded into 96-well plates (×3) (the cells was diluted in the PRMI-1640 minimum medium to 3×10^4 cells/ml, […] diluted cells/well). […] The experiments were performed in quadruplicate.
# (§2) (2) The medium was removed. Solutions of the anti-tumor agents (15 compounds) were prepared in a freshly prepared medium at the concentrations indicated in the following Table. […] of the solution was added into each well. Incubation was continued for 48 hours.
# (§3) (3) […] of 2 mg/ml MTT was added into each well, and incubated for 4 hours.
# (§4) (4) The medium was removed from the well. The microplates were swiftly turned down to throw-off the medium. […] DMSO was added into each well, and vortexed at room temperature for 10 minutes.
# (§5) (5) OD value (λ=570 nm) was measured with an Enzyme-Linked Detector.
# (§6) (6) The inhibition rates (IR) of cell growth were respectively calculated based on the following equation: IR(%)=[1−(average OD of the experimental group/average OD of the control group)]×100%
# [2] = test system: A-549 human lung adenocarcinoma; experiment: In vitro inhibition rate to tumor cells (MTT), A-549; type: cell-based; conditions: 50 μg/ml
# Procedure: as §1, §2, §3, §4, §5, §6
# [3] = test system: Bel-7402 human hepatic carcinoma; experiment: In vitro inhibition rate to tumor cells (MTT), Bel-7402; type: cell-based; conditions: 50 μg/ml
# Procedure: as §1, §2, §3, §4, §5, §6
# [4] = test system: MCF-7 human mammary adenocarcinoma; experiment: In vitro inhibition rate to tumor cells (MTT), MCF-7; type: cell-based; conditions: 50 μg/ml
# Procedure: as §1, §2, §3, §4, §5, §6
# [5] = test system: SMMC-7721 human hepatic carcinoma; experiment: In vitro inhibition rate to tumor cells (MTT), SMMC-7721; type: cell-based; conditions: 50 μg/ml
# Procedure: as §1, §2, §3, §4, §5, §6
# [6] = test system: HL-60 human promyelocytic leukemia; experiment: In vitro inhibition rate to tumor cells (MTT), HL-60; type: cell-based; conditions: 50 μg/ml
# Procedure: as §1, §2, §3, §4, §5, §6
# [7] = test system: Hela human cervical carcinoma; experiment: In vitro inhibition rate to tumor cells (MTT), Hela; type: cell-based; conditions: 50 μg/ml
# Procedure: as §1, §2, §3, §4, §5, §6
# [8] = test system: LLC mouse Lewis lung carcinoma; experiment: In vitro inhibition rate to tumor cells (MTT), LLC; type: cell-based; conditions: 50 μg/ml
# Procedure: as §1, §2, §3, §4, §5, §6
# [9] = test system: 293 cells; experiment: Cell status of 293 cells treated with sample alone (herpes virus screening)
# [10] = test system: mouse grafted sarcoma S-180; experiment: Activity against mouse grafted sarcoma S-180; type: in vivo, Kunming mice; conditions: 1 mg/kg i.v., 6 doses; for Tumor weight: X ± SD, n = 10
# Procedure: (1) Experimental animals: Kunming mice weighting 18-22 g;
# (2) 100 mg/ml solutions of the 3 compounds were prepared, respectively, in water for injection (1% surface surfactant was added into the solution of Compound 6). 5-FU and camptothecine, 30 mg/kg and 1 mg/kg, respectively, were used as positive controls;
# 3. Route of Administration: Intravenous Injection.
# (§7) The experiments were performed according to “Guideline for New Drugs (Western medicines) in Pre-clinical Stages” issued by Bureau of Drug Policy & Administration of the People's Republic of China, and the relevant methods in “Methodology of Pharmaceutical Experiments”, Xu Shuyun et al. ed. 120 male Kunming mice weighting […] were allowed to grow 3 days. No abnormality was observed. The mice were routinely inoculated in oxter with mouse sarcoma S-180, and weighted 4 hrs. after inoculation. The mice were randomly divided into 12 groups, 10 mice/group. Group 1 was given 0.3 ml of physiological saline as negative control; Group 2 was given 5-FU as positive control, 0.6 mg/mouse; Group 3 was given hydroxycamptothecine as positive control, 0.02 mg/mouse. Groups 4, 5 and 6 were injected with 10% Compound 6, 0.4 ml/mouse, 0.2 ml/mouse, and 0.1 ml/mouse, respectively. Groups 7, 8 and 9 were injected with 10% Compound 8, 0.4 ml/mouse, 0.2 ml/mouse, and 0.1 ml/mouse, respectively. Groups 10, 11, and 12 were injected with 10% Compound 20, 0.4 ml/mouse, 0.2 ml/mouse, and 0.1 ml/mouse, respectively. The tested compounds were administered on the next day after inoculation, once a day on alternate days, 6 doses totally administered. On the next day after the end dose, the mice were weighed and sacrificed. After the tumor was excised, body weight and tumor weight were recorded. The tumor inhibition rate was calculated based on the following formula: [(average tumor weight of the control groups−average tumor weight of the experimental groups)/average tumor weight of the control groups]×100%. The data was processed statistically. The above experiments were repeated three times.
# [11] = test system: mouse grafted liver cancer H22; experiment: Activity against mouse grafted liver cancer H22; type: in vivo, Kunming mice; conditions: for Tumor weight: X ± SD, n = 10
# Procedure: as §7
# The experiments were identical with the experiments for activity against mouse grafted sarcoma S-180, except that the cell line inoculated was liver cancer H22. The experiments were repeated three times.
# [12] = test system: mouse grafted uterine cervix cancer U14; experiment: Activity against mouse grafted uterine cervix cancer U14; type: in vivo, Kunming mice; conditions: 1 mg/kg; for Tumor weight: X ± SD, n = 10
# Procedure: as §7
# (§8) The experiments were identical with the experiments for activity against mouse grafted sarcoma S-180, except the following:
# (1) the tumor cell line inoculated was mouse grafted uterine cervix cancer U14;
# (2) all the mice were female.
# [13] = test system: mouse lung cancer Lewis; experiment: Activity against mouse grafted lung cancer Lewis; type: in vivo, Kunming mice; conditions: Lewis, 1 mg/kg; for Tumor weight: X ± SD, n = 10
# Procedure: as §7, §8
# (1) the tumor cell line inoculated was mouse lung cancer Lewis;
# (2) Compound 6, Compound 8 and Compound 21 were not tested for their activity;
# (3) the mice were divided into six groups.
# [14] = target: T1, HIV-1 proteinase (HIV-1 PR) (Human immunodeficiency virus type 1 group M subtype B, UniProt P04585); experiment: Screening for in vitro activity against HIV-1 proteinase; type: biochemical; conditions: read-out: Inhibition rate, 10 nM
# T1 construct: HIV-1 proteinase digests the fluorescent-labeled substrate; purchased
# Procedure: Principle of the test: HIV-1 proteinase digests the fluorescent-labeled substrate in an optimal reaction condition and system. The activity of the enzyme can be reflected by the fluorescent intensity in the product of the enzyme reaction. Adding a sample into the reaction system can be used for screening the inhibitor of the enzyme.
# 1. HIV-1 PR: commercially available, stored at −85° C.
# 2. Treatment of the samples: Before use, sample was dissolved in DMSO at a suitable concentration, then serially diluted (5×) with double distilled water, five serial dilutions per sample.
# 3. Positive control: indinavir, purchased from […].
# 4. Methods: The diluted sample was added into the reaction buffer containing the fluorescent-labeled substrate. Then the genetic engineered target enzyme was added, and incubated in the optimal reaction condition. The fluorescent value was measured with a FLUO star Galaxy luminoscope.
# [15] = H22, first experiment, 1 mg/kg i.v., 6 doses
# [16] = H22, second experiment, 1 mg/kg
compound,measurement,setting,value
"CC(C)C1CC23OC1(O)CC(C)(N1CCNCC1)C2CCC3C (stereo not drawn) [Compound 43, Curcumol piperazine without double bond]","inhibition rate, Results (%) U-937",[1]; Table 1,16.32%
same,"inhibition rate, Results (%) U-937",[1]; Table 2 (repeated screening),12.30%
same,"inhibition rate, Results (%) A-549",[2]; Table 1,13.39%
same,"inhibition rate, Results (%) A-549",[2]; Table 2 (repeated screening),11.24%
same,"inhibition rate, Results (%) Bel-7402",[3]; Table 1,9.15%
same,"inhibition rate, Results (%) Bel-7402",[3]; Table 2 (repeated screening),−4.98%
same,"inhibition rate, Results (%) MCF-7",[4]; Table 1,43.21%
same,"inhibition rate, Results (%) MCF-7",[4]; Table 2 (repeated screening),41.94%
same,"inhibition rate, Results (%) SMMC-7721",[5]; Table 1,−10.12%
same,"inhibition rate, Results (%) SMMC-7721",[5]; Table 2 (repeated screening),−8.98%
same,"inhibition rate, Results (%) HL-60",[6]; Table 1,2.56%
same,"inhibition rate, Results (%) HL-60",[6]; Table 2 (repeated screening),2.00%
same,"inhibition rate, Results (%) Hela",[7]; Table 1,62.13%
same,"inhibition rate, Results (%) Hela",[7]; Table 2 (repeated screening),59.66%
same,"inhibition rate, Results (%) LLC",[8]; Table 1,−2.06%
same,"inhibition rate, Results (%) LLC",[8]; Table 2 (repeated screening),−11.23%
same,"Cytopathy and cell status, Sample","[9]; 50 μg/ml, 293 cells without virus, 12 hrs",Good
"C=C1CC2(OC(=O)c3ccccc3)OC3(CC2C(C)C)C(C)CCC13 (stereo not drawn) [Compound 4, Curcumol benzoate]","inhibition rate, Results (%) U-937",[1]; Table 1,52.23%
same,"inhibition rate, Results (%) U-937",[1]; Table 2 (repeated screening),51.00%
same,"inhibition rate, Results (%) A-549",[2]; Table 1,10.51%
same,"inhibition rate, Results (%) A-549",[2]; Table 2 (repeated screening),14.03%
same,"inhibition rate, Results (%) Bel-7402",[3]; Table 1,43.21%
same,"inhibition rate, Results (%) Bel-7402",[3]; Table 2 (repeated screening),43.02%
same,"inhibition rate, Results (%) MCF-7",[4]; Table 1,49.23%
same,"inhibition rate, Results (%) MCF-7",[4]; Table 2 (repeated screening),50.09%
same,"inhibition rate, Results (%) SMMC-7721",[5]; Table 1,5.30%
same,"inhibition rate, Results (%) SMMC-7721",[5]; Table 2 (repeated screening),1.96%
same,"inhibition rate, Results (%) HL-60",[6]; Table 1,42.1%
same,"inhibition rate, Results (%) HL-60",[6]; Table 2 (repeated screening),40.01%
same,"inhibition rate, Results (%) Hela",[7]; Table 1,73.22%
same,"inhibition rate, Results (%) Hela",[7]; Table 2 (repeated screening),70.12%
same,"inhibition rate, Results (%) LLC",[8]; Table 1,1.01%
same,"inhibition rate, Results (%) LLC",[8]; Table 2 (repeated screening),0.23%
same,"Cytopathy and cell status, Sample","[9]; 200 μg/ml, 24 hrs",Good
hydroxycamptothecine [reference compound],Average weight (g)-after administration,"[10]; S-180, first experiment",20.8 g
same,Inhibition rate (%),"[10]; S-180, first experiment",65.2%
same,Tumor weight,"[10]; S-180, first experiment",0.87 ± 0.28 g
same,Average weight(g)-after administration,"[10]; S-180, second experiment",20.8 g
same,Inhibition rate (%),"[10]; S-180, second experiment",64.6%
same,Tumor weight,"[10]; S-180, second experiment",0.92 ± 0.38 g
same,Average weight(g)-after administration,[11]; [15],20.5 g
same,Inhibition rate (%),[11]; [15],63.9%
same,Tumor weight,[11]; [15],1.12 ± 0.28 g
same,Average weight(g)-after administration,[11]; [16],20.2 g
same,Inhibition rate (%),[11]; [16],66.9%
same,Tumor weight,[11]; [16],1.00 ± 0.28 g
same,Average weight (g)-after administration,"[11]; H22, third experiment, 1 mg/kg",22.2 g
same,Inhibition rate (%),"[11]; H22, third experiment, 1 mg/kg",65.3%
same,Tumor weight,"[11]; H22, third experiment, 1 mg/kg",1.05 ± 0.28 g
same,Average weight(g)-after administration,"[12]; U14, first experiment",22.2 g
same,Inhibition rate (%),"[12]; U14, first experiment",45.8%
same,Tumor weight,"[12]; U14, first experiment",1.90 ± 0.28 g
same,Average weight(g)-after administration,"[12]; U14, second experiment",22.3 g
same,Inhibition rate (%),"[12]; U14, second experiment",46.5%
same,Tumor weight,"[12]; U14, second experiment",1.82 ± 0.28 g
same,Average weight (g)-after administration,"[12]; U14, third experiment",21.3 g
same,Inhibition rate (%),"[12]; U14, third experiment",45.6%
same,Tumor weight,"[12]; U14, third experiment",1.96 ± 0.28 g
same,Average weight (g)-after administration,[13]; second experiment,21.0 g
same,Inhibition rate (%),[13]; second experiment,50.2%
same,Tumor weight,[13]; second experiment,1.20 ± 0.28 g
same,Average weight (g)-after administration,[13]; third experiment,21.5 g
same,Inhibition rate (%),[13]; third experiment,51.9%
same,Tumor weight,[13]; third experiment,1.30 ± 0.28 g
CC[C@@]1(O)C(=O)OCc2c1cc1n(c2=O)Cc2cc3cc(O)ccc3nc2-1 [Hydioxycamptothecine],Average weight (g)-after administration,[13]; first experiment,21.0 g
same,Inhibition rate (%),[13]; first experiment,49.7%
same,Tumor weight,[13]; first experiment,1.50 ± 0.28 g
CC(C)(C)NC(=O)[C@@H]1CN(Cc2cccnc2)CCN1C[C@@H](O)C[C@@H](Cc1ccccc1)C(=O)N[C@H]1c2ccccc2C[C@H]1O [indinavir],inhibition at 0.01 µM,[14],92.1%
"CC(C)C1CC23OC1(O)CC(C)(Br)C2CCC3C (stereo not drawn) [Compound 34, Curcumol monobromide without double bond]","inhibition rate, Results (%) U-937",[1]; Table 1,35.23%
same,"inhibition rate, Results (%) U-937",[1]; Table 2 (repeated screening),23.56%
same,"inhibition rate, Results (%) A-549",[2]; Table 1,2.31%
same,"inhibition rate, Results (%) A-549",[2]; Table 2 (repeated screening),9.23%
same,"inhibition rate, Results (%) Bel-7402",[3]; Table 1,1.11%
same,"inhibition rate, Results (%) Bel-7402",[3]; Table 2 (repeated screening),0.59%
same,"inhibition rate, Results (%) MCF-7",[4]; Table 1,1.23%
same,"inhibition rate, Results (%) MCF-7",[4]; Table 2 (repeated screening),4.56%
same,"inhibition rate, Results (%) SMMC-7721",[5]; Table 1,−5.25%
same,"inhibition rate, Results (%) SMMC-7721",[5]; Table 2 (repeated screening),0.95%
same,"inhibition rate, Results (%) HL-60",[6]; Table 1,2.96%
same,"inhibition rate, Results (%) HL-60",[6]; Table 2 (repeated screening),3.14%
same,"inhibition rate, Results (%) Hela",[7]; Table 1,50.64%
same,"inhibition rate, Results (%) Hela",[7]; Table 2 (repeated screening),51.89%
same,"inhibition rate, Results (%) LLC",[8]; Table 1,−18.52%
same,"inhibition rate, Results (%) LLC",[8]; Table 2 (repeated screening),−11.22%
